# Measurements from PubChem BioAssay (NCI).
#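 In this assay, cells in 96-well plates receive the compound at five concentrations for 48 hours. Endpoints are linearly interpolated between the surrounding concentrations. GI50 = concentration required for 50% inhibition of growth. TGI: concentration producing complete growth inhibition.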
# Experiments:
# Assay in all cases: growth of human tumour cells (NCI), 48 h
# K-562 leukemia = test system: K-562 leukemia
# OVCAR-5 ovarian = test system: OVCAR-5 ovarian
# SW-620 colon = test system: SW-620 colon
# RPMI-8226 leukemia = test system: RPMI-8226 leukemia
# HCC-2998 colon = test system: HCC-2998 colon
# UACC-257 melanoma = test system: UACC-257 melanoma
# SF-295 CNS = test system: SF-295 CNS
# ACHN renal = test system: ACHN renal
# KM12 colon = test system: KM12 colon
# OVCAR-8 ovarian = test system: OVCAR-8 ovarian
# LOX IMVI melanoma = test system: LOX IMVI melanoma
# CAKI-1 renal = test system: CAKI-1 renal
# MOLT-4 leukemia = test system: MOLT-4 leukemia
# COLO 205 colon = test system: COLO 205 colon
# SNB-19 CNS = test system: SNB-19 CNS
# UACC-62 melanoma = test system: UACC-62 melanoma
# SK-MEL-2 melanoma = test system: SK-MEL-2 melanoma
# HL-60(TB) leukemia = test system: HL-60(TB) leukemia
# SNB-75 CNS = test system: SNB-75 CNS
# NCI-H23 lung = test system: NCI-H23 lung
# SK-MEL-28 melanoma = test system: SK-MEL-28 melanoma
# SR leukemia = test system: SR leukemia
# SF-539 CNS = test system: SF-539 CNS
# HCT-15 colon = test system: HCT-15 colon
# SK-OV-3 ovarian = test system: SK-OV-3 ovarian
# SK-MEL-5 melanoma = test system: SK-MEL-5 melanoma
# U251 CNS = test system: U251 CNS
# M14 melanoma = test system: M14 melanoma
# T-47D breast = test system: T-47D breast
# HOP-62 NSCLC = test system: HOP-62 NSCLC
# OVCAR-4 ovarian = test system: OVCAR-4 ovarian
# A549 NSCLC = test system: A549 NSCLC
# NCI-H226 lung = test system: NCI-H226 lung
# MDA-MB-231 breast = test system: MDA-MB-231 breast
# EKVX NSCLC = test system: EKVX NSCLC
# DU-145 prostate = test system: DU-145 prostate
# CCRF-CEM leukemia = test system: CCRF-CEM leukemia
# SN12C renal = test system: SN12C renal
# IGROV1 ovarian = test system: IGROV1 ovarian
# NCI/ADR-RES ovarian = test system: NCI/ADR-RES ovarian
# RXF 393 renal = test system: RXF 393 renal
# BT-549 breast = test system: BT-549 breast
# UO-31 renal = test system: UO-31 renal
# PC-3 prostate = test system: PC-3 prostate
# OVCAR-3 ovarian = test system: OVCAR-3 ovarian
# HCT-116 colon = test system: HCT-116 colon
# MALME-3M melanoma = test system: MALME-3M melanoma
# TK-10 renal = test system: TK-10 renal
# 786-0 renal = test system: 786-0 renal
# HOP-92 NSCLC = test system: HOP-92 NSCLC
# A498 renal = test system: A498 renal
# MCF7 breast = test system: MCF7 breast
# NCI-H522 lung = test system: NCI-H522 lung
# HT29 colon = test system: HT29 colon
# HS 578T breast = test system: HS 578T breast
# NCI-H460 lung = test system: NCI-H460 lung
# SF-268 CNS = test system: SF-268 CNS
# MDA-MB-435 = test system: MDA-MB-435
smiles,measurement,setting,value
COc1cc2c(cc1Nc1nc(Nc3cccc(F)c3C(N)=O)c3cc[nH]c3n1)N(C(=O)CN1CCN(C(C)C)CC1)CC2,GI50,K-562 leukemia,4.67 µM
same,TGI,K-562 leukemia,11 µM
same,GI50,OVCAR-5 ovarian,2.82 µM
same,TGI,OVCAR-5 ovarian,7.35 µM
same,GI50,SW-620 colon,2.81 µM
same,TGI,SW-620 colon,5.96 µM
same,GI50,RPMI-8226 leukemia,4.58 µM
same,TGI,RPMI-8226 leukemia,10.9 µM
same,GI50,HCC-2998 colon,3.08 µM
same,TGI,HCC-2998 colon,6.31 µM
same,GI50,UACC-257 melanoma,2.98 µM
same,TGI,UACC-257 melanoma,6.3 µM
same,GI50,SF-295 CNS,4.32 µM
same,TGI,SF-295 CNS,9.26 µM
same,GI50,ACHN renal,4.59 µM
same,TGI,ACHN renal,10.2 µM
same,GI50,KM12 colon,3.82 µM
same,TGI,KM12 colon,7.31 µM
same,GI50,OVCAR-8 ovarian,4.54 µM
same,TGI,OVCAR-8 ovarian,10.2 µM
same,GI50,LOX IMVI melanoma,3.49 µM
same,TGI,LOX IMVI melanoma,7.03 µM
same,GI50,CAKI-1 renal,4.94 µM
same,TGI,CAKI-1 renal,11.9 µM
same,GI50,MOLT-4 leukemia,4.74 µM
same,TGI,MOLT-4 leukemia,10.7 µM
same,GI50,COLO 205 colon,0.666 µM
same,TGI,COLO 205 colon,3.65 µM
same,GI50,SNB-19 CNS,4.11 µM
same,TGI,SNB-19 CNS,8.27 µM
same,GI50,UACC-62 melanoma,3.9 µM
same,TGI,UACC-62 melanoma,7.74 µM
same,GI50,SK-MEL-2 melanoma,3.3 µM
same,TGI,SK-MEL-2 melanoma,6.95 µM
same,GI50,HL-60(TB) leukemia,1.42 µM
same,TGI,HL-60(TB) leukemia,5.6 µM
same,GI50,SNB-75 CNS,3 µM
same,TGI,SNB-75 CNS,6.18 µM
same,GI50,NCI-H23 lung,3.36 µM
same,TGI,NCI-H23 lung,7.05 µM
same,GI50,SK-MEL-28 melanoma,3.7 µM
same,TGI,SK-MEL-28 melanoma,7.02 µM
same,GI50,SR leukemia,1.19 µM
same,TGI,SR leukemia,15.2 µM
same,GI50,SF-539 CNS,3.74 µM
same,TGI,SF-539 CNS,7.7 µM
same,GI50,HCT-15 colon,4.36 µM
same,TGI,HCT-15 colon,9.33 µM
same,GI50,SK-OV-3 ovarian,3.85 µM
same,TGI,SK-OV-3 ovarian,7.26 µM
same,GI50,SK-MEL-5 melanoma,1.26 µM
same,TGI,SK-MEL-5 melanoma,2.56 µM
same,GI50,U251 CNS,3.68 µM
same,TGI,U251 CNS,7.09 µM
same,GI50,M14 melanoma,3.99 µM
same,TGI,M14 melanoma,7.54 µM
same,GI50,T-47D breast,3.23 µM
same,TGI,T-47D breast,6.54 µM
same,GI50,HOP-62 NSCLC,2.88 µM
same,TGI,HOP-62 NSCLC,5.92 µM
same,GI50,OVCAR-4 ovarian,3.88 µM
same,TGI,OVCAR-4 ovarian,7.94 µM
same,GI50,A549 NSCLC,3.48 µM
same,TGI,A549 NSCLC,7.19 µM
same,GI50,NCI-H226 lung,3.41 µM
same,TGI,NCI-H226 lung,7.01 µM
same,GI50,MDA-MB-231 breast,3.94 µM
same,TGI,MDA-MB-231 breast,8.22 µM
same,GI50,EKVX NSCLC,3.08 µM
same,TGI,EKVX NSCLC,7.13 µM
same,GI50,DU-145 prostate,3.77 µM
same,TGI,DU-145 prostate,7.28 µM
same,GI50,CCRF-CEM leukemia,5.35 µM
same,TGI,CCRF-CEM leukemia,14.2 µM
same,GI50,SN12C renal,4.66 µM
same,TGI,SN12C renal,10.5 µM
same,GI50,IGROV1 ovarian,4.5 µM
same,TGI,IGROV1 ovarian,10.2 µM
same,GI50,NCI/ADR-RES ovarian,5.42 µM
same,TGI,NCI/ADR-RES ovarian,13.5 µM
same,GI50,RXF 393 renal,2.3 µM
same,TGI,RXF 393 renal,5.77 µM
same,GI50,BT-549 breast,3.95 µM
same,TGI,BT-549 breast,7.54 µM
same,GI50,UO-31 renal,3.92 µM
same,TGI,UO-31 renal,9.74 µM
same,GI50,PC-3 prostate,5.12 µM
same,TGI,PC-3 prostate,13.5 µM
same,GI50,OVCAR-3 ovarian,4.52 µM
same,TGI,OVCAR-3 ovarian,8.69 µM
same,GI50,HCT-116 colon,3.39 µM
same,TGI,HCT-116 colon,6.63 µM
same,GI50,MALME-3M melanoma,3.17 µM
same,TGI,MALME-3M melanoma,7.06 µM
same,GI50,TK-10 renal,2.97 µM
same,TGI,TK-10 renal,7.55 µM
same,GI50,786-0 renal,3.98 µM
same,TGI,786-0 renal,7.53 µM
same,GI50,HOP-92 NSCLC,0.374 µM
same,TGI,HOP-92 NSCLC,3.13 µM
same,GI50,A498 renal,2.43 µM
same,TGI,A498 renal,3.68 µM
same,GI50,MCF7 breast,0.683 µM
same,TGI,MCF7 breast,4.32 µM
same,GI50,NCI-H522 lung,3.89 µM
same,TGI,NCI-H522 lung,7.69 µM
same,GI50,HT29 colon,0.685 µM
same,TGI,HT29 colon,4.06 µM
same,GI50,HS 578T breast,3.76 µM
same,TGI,HS 578T breast,10.3 µM
same,GI50,NCI-H460 lung,3.36 µM
same,TGI,NCI-H460 lung,7 µM
same,GI50,SF-268 CNS,3.98 µM
same,TGI,SF-268 CNS,8.34 µM
same,GI50,MDA-MB-435,3.12 µM
same,TGI,MDA-MB-435,6.98 µM
